18 molecules from patent US8912169B2, “Beta-lactamase inhibitors” (VenatoRx Pharmaceuticals, Inc., priority 2012, dated 2014) can be followed below.

SMILES strings stand for the structures.

Common to all, as to assay type: biochemical
Assay [1] concerns the target T1, KPC-2 (Klebsiella pneumoniae, UniProt Q9F663).
T1 construct: made in house; host or cells: E. coli BL21(DE3)
The assay is described as follows: β-lactamase enzyme inhibition, KPC-2. Particulars: substrate imipenem, 300 nm; read-out: Class A KPC-2 IC50. The procedure, abridged:
(§1)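 Native untagged β-lactamases expressed in E. coli BL21(DE3) and purified, then pre-incubated with inhibitor 15 min at 37 °C. Hydrolysis was followed by absorbance: 100 μM nitrocefin at 486 nm for p99 AmpC and OXA-1; imipenem at 300 nm for KPC-2; cefotaxime at 260 nm for SHV-5. IC50 from initial-rate inhibition versus uninhibited controls.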

The target in assay [2] is T2, OXA-1 (Escherichia coli, UniProt P13661).
T2 construct: made in house; host or cells: E. coli BL21(DE3)
The assay can be described thus: β-lactamase enzyme inhibition, OXA-1. Particulars: substrate Nitrocefin 100 μM, 486 nm; read-out: Class D OXA-1 IC50. The procedure, abridged:
as §1

Assay [3] concerns the target T3, VIM-2 (Escherichia coli, UniProt Q5U7L7).
T3 construct: made in house; host or cells: E. coli BL21(DE3)
The assay is described as follows: β-lactamase enzyme inhibition, VIM-2. Particulars: substrate Nitrocefin 100 μM, 486 nm; read-out: Class B VIM-2 IC50. The procedure, abridged: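 Purified VIM-2 (Q sepharose, 50 mM Hepes pH 7.5, >90% purity) preincubated with inhibitor 15 min at 37° C, then nitrocefin added at 100 μM final. Hydrolysis followed at 486 nm for 10 min; IC50 from initial rates versus inhibitor-free control wells.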

For assay [4], the target named is T4, p99 AmpC (Enterobacter cloacae, UniProt P05364).
T4 construct: made in house; host or cells: E. coli BL21(DE3)
The assay can be described thus: β-lactamase enzyme inhibition, p99 AmpC. An outline of the steps:
as §1

The target in assay [5] is T5, SHV-5 (Klebsiella pneumoniae, UniProt P0A3M1).
T5 construct: made in house; host or cells: E. coli BL21(DE3)
The assay is described as follows: β-lactamase enzyme inhibition, SHV-5. An outline of the steps:
as §1

For orientation: IC50 means the point on the concentration scale where inhibition reaches its midpoint. Take `CS(=O)(=O)NCCN[C@H]1CC[C@H](CC(=O)N[C@H]2Cc3cccc(C(=O)O)c3OB2O)CC1` [Example 49, (R)-2-hydroxy-3-(2-(trans-4-(2-(methylsulfonamido)ethylamino)cyclohexyl)acetamido)-3,4-dihydro-2H-benzo[e][1,2]oxaborinine-8-carboxylic acid]: the IC50 is below 100 nM in assay [1]; below 100 nM in assay [2]; 100 to 1000 nM in assay [3]; below 100 nM in assay [4]; below 100 nM in assay [5].

`NCCN[C@H]1CC[C@H](CC(=O)N[C@@H]2Cc3cccc(C(=O)O)c3OB2O)CC1` [Example 50, (S)-3-(2-(trans-4-(2-aminoethylamino)cyclohexyl)acetamido)-2-hydroxy-3,4-dihydro-2H-benzo[e][1,2]oxaborinine-8-carboxylic acid]: the IC50 in assay [1], in assay [2], in assay [3], in assay [4] and in assay [5] was 100 to 1000 nM in each case.

Regarding `CNCCN[C@H]1CC[C@H](CC(=O)N[C@H]2Cc3cccc(C(=O)O)c3OB2O)CC1` [Example 51, (R)-2-hydroxy-3-(2-(trans-4-(2-(methylamino)ethylamino)cyclohexyl)acetamido)-3,4-dihydro-2H-benzo[e][1,2]oxaborinine-8-carboxylic acid], the IC50 in assay [1], in assay [2], in assay [3], in assay [4] and in assay [5] was below 100 nM throughout.

`CN1CCN([C@H]2CC[C@H](CC(=O)N[C@H]3Cc4cccc(C(=O)O)c4OB3O)CC2)C1=N` [Example 52, (R)-2-hydroxy-3-(2-(trans-4-(2-imino-3-methylimidazolidin-1-yl)cyclohexyl)acetamido)-3,4-dihydro-2H-benzo[e][1,2]oxaborinine-8-carboxylic acid]: the IC50 in assay [1] is below 100 nM; in assay [2] it was below 100 nM; in assay [3], 10000 to 100000 nM; in assay [4] it was below 100 nM; in assay [5], below 100 nM.

In the case of `C[C@H](N)CN[C@H]1CC[C@H](CC(=O)N[C@H]2Cc3cccc(C(=O)O)c3OB2O)CC1` [Example 53, (R)-3-(2-(trans-4-((S)-2-aminopropylamino)cyclohexyl)acetamido)-2-hydroxy-3,4-dihydro-2H-benzo[e][1,2]oxaborinine-8-carboxylic acid], the IC50 in assay [1], in assay [2], in assay [3], in assay [4] and in assay [5] was below 100 nM each time.

Take `COC(=O)NCCN[C@H]1CC[C@H](CC(=O)N[C@H]2Cc3cccc(C(=O)O)c3OB2O)CC1` [Example 54, (R)-2-hydroxy-3-(2-(trans-4-(2-(methoxycarbonylamino)ethylamino)cyclohexyl)acetamido)-3,4-dihydro-2H-benzo[e][1,2]oxaborinine-8-carboxylic acid]: the IC50 is below 100 nM in assay [1]; below 100 nM in assay [2]; 100 to 1000 nM in assay [3]; 100 to 1000 nM in assay [4]; below 100 nM in assay [5].

As for `NCCNC1CC(CC(=O)N[C@H]2Cc3cccc(C(=O)O)c3OB2O)C1` (stereo partly drawn) [Example 55, (R)-3-(2-(3-(2-aminoethylamino)cyclobutyl)acetamido)-2-hydroxy-3,4-dihydro-2H-benzo[e][1,2]oxaborinine-8-carboxylic acid], the IC50 in assay [1], in assay [2], in assay [3], in assay [4] and in assay [5] was below 100 nM in each case.

For `NC1CC(CC(=O)N[C@H]2Cc3cccc(C(=O)O)c3OB2O)C1` (stereo partly drawn) [Example 56, (R)-3-(2-(3-aminocyclobutyl)acetamido)-2-hydroxy-3,4-dihydro-2H-benzo[e][1,2]oxaborinine-8-carboxylic acid], the IC50 in assay [1] is below 100 nM; in assay [2], below 100 nM; in assay [3] it was 100 to 1000 nM; in assay [4], below 100 nM; in assay [5] it was 100 to 1000 nM.

On to `NCCNC(=O)NCCN(C(=O)NCCN)C1CC(CC(=O)N[C@H]2Cc3cccc(C(=O)O)c3OB2O)C1` (stereo partly drawn) [Example 57, (R)-3-(2-(3-(3-(2-aminoethyl)-1-(2-(3-(2-aminoethyl)ureido)ethyl)ureido)cyclobutyl)acetamido)-2-hydroxy-3,4-dihydro-2H-benzo[e][1,2]oxaborinine-8-carboxylic acid], for which the IC50 in assay [1] was below 100 nM; in assay [2] it was below 100 nM; in assay [3] it was 100 to 1000 nM; in assay [4], below 100 nM; in assay [5] it was below 100 nM.

As for `NCCNC(=O)NC1CC(CC(=O)N[C@H]2Cc3cccc(C(=O)O)c3OB2O)C1` (stereo partly drawn) [Example 58, (R)-3-(2-(3-(3-(2-aminoethyl)ureido)cyclobutyl)acetamido)-2-hydroxy-3,4-dihydro-2H-benzo[e][1,2]oxaborinine-8-carboxylic acid], the half-maximal inhibitory concentration (IC50) in assay [1] is below 100 nM; in assay [2] it was below 100 nM; in assay [3], 100 to 1000 nM; in assay [4], below 100 nM; in assay [5], below 100 nM.

Regarding `NCCNC(=O)N[C@H]1CC[C@H](CC(=O)N[C@H]2Cc3cccc(C(=O)O)c3OB2O)CC1` [Example 59, (R)-3-(2-(trans-4-(3-(2-aminoethyl)ureido)cyclohexyl)acetamido)-2-hydroxy-3,4-dihydro-2H-benzo[e][1,2]oxaborinine-8-carboxylic acid], the IC50 in assay [1] is below 100 nM; in assay [2], below 100 nM; in assay [3], 100 to 1000 nM; in assay [4], below 100 nM; in assay [5], below 100 nM.

`NCCCN[C@H]1CC[C@H](CC(=O)N[C@H]2Cc3cccc(C(=O)O)c3OB2O)CC1` [Example 60, (R)-3-(2-(trans-4-(3-aminopropylamino)cyclohexyl)acetamido)-2-hydroxy-3,4-dihydro-2H-benzo[e][1,2]oxaborinine-8-carboxylic acid]: the IC50 in assay [1], in assay [2], in assay [3], in assay [4] and in assay [5] was below 100 nM in each case.

As to `O=C(C[C@H]1CC[C@H](NCCNCCO)CC1)N[C@H]1Cc2cccc(C(=O)O)c2OB1O` [Example 61, (R)-2-hydroxy-3-(2-(trans-4-(2-(2-hydroxyethylamino)ethylamino)cyclohexyl)acetamido)-3,4-dihydro-2H-benzo[e][1,2]oxaborinine-8-carboxylic acid], the IC50 in assay [1], in assay [2], in assay [3], in assay [4] and in assay [5] was below 100 nM each time.

As to `C[C@H](N)CNCCN[C@H]1CC[C@H](CC(=O)N[C@H]2Cc3cccc(C(=O)O)c3OB2O)CC1` [Example 62, (R)-3-(2-(trans-4-(2-((S)-2-aminopropylamino)ethylamino)cyclohexyl)acetamido)-2-hydroxy-3,4-dihydro-2H-benzo[e][1,2]oxaborinine-8-carboxylic acid], the IC50 in assay [1], in assay [2], in assay [3], in assay [4] and in assay [5] was below 100 nM each time.

For `CN(CCN)[C@H]1CC[C@H](CC(=O)N[C@H]2Cc3cccc(C(=O)O)c3OB2O)CC1` [Example 63, (R)-3-(2-(trans-4-((2-aminoethyl)(methyl)amino)cyclohexyl)acetamido)-2-hydroxy-3,4-dihydro-2H-benzo[e][1,2]oxaborinine-8-carboxylic acid], the IC50 in assay [1], in assay [2], in assay [3], in assay [4] and in assay [5] was below 100 nM throughout.

For the molecule `CNCCN[C@H]1CC[C@H](C(CO)C(=O)N[C@H]2Cc3cccc(C(=O)O)c3OB2O)CC1` (stereo partly drawn) [Example 64, (R)-2-hydroxy-3-(3-hydroxy-2-(trans-4-(2-(methylamino)ethylamino)cyclohexyl)propanamido)-3,4-dihydro-2H-benzo[e][1,2]oxaborinine-8-carboxylic acid], the IC50 in assay [1] is 100 to 1000 nM; in assay [2], below 100 nM; in assay [3], below 100 nM; in assay [4], below 100 nM; in assay [5], below 100 nM.

As for `N[C@@H](CO)CN[C@H]1CC[C@H](CC(=O)N[C@H]2Cc3cccc(C(=O)O)c3OB2O)CC1` [Example 65, (R)-3-(2-(trans-4-((R)-2-amino-3-hydroxypropylamino)cyclohexyl)acetamido)-2-hydroxy-3,4-dihydro-2H-benzo[e][1,2]oxaborinine-8-carboxylic acid], the IC50 in assay [1], in assay [2], in assay [3], in assay [4] and in assay [5] was below 100 nM each time.

For `CSCCN[C@H]1CC[C@H](CC(=O)N[C@H]2Cc3cccc(C(=O)O)c3OB2O)CC1` [Example 66, (R)-2-hydroxy-3-(2-(trans-4-(2-(methylthio)ethylamino)cyclohexyl)acetamido)-3,4-dihydro-2H-benzo[e][1,2]oxaborinine-8-carboxylic acid], the IC50 in assay [1] is below 100 nM; in assay [2], below 100 nM; in assay [3], 1000 to 10000 nM; in assay [4] it was below 100 nM; in assay [5] it was below 100 nM.
